The values below come from patent US9884865B2, “Azaspiro[4.5] decane derivatives and use thereof” (Purdue Pharma L.P., priority 2013, dated 2018).

T1 sequence (Q15858 other isoform, or with tags, fused parts or gaps): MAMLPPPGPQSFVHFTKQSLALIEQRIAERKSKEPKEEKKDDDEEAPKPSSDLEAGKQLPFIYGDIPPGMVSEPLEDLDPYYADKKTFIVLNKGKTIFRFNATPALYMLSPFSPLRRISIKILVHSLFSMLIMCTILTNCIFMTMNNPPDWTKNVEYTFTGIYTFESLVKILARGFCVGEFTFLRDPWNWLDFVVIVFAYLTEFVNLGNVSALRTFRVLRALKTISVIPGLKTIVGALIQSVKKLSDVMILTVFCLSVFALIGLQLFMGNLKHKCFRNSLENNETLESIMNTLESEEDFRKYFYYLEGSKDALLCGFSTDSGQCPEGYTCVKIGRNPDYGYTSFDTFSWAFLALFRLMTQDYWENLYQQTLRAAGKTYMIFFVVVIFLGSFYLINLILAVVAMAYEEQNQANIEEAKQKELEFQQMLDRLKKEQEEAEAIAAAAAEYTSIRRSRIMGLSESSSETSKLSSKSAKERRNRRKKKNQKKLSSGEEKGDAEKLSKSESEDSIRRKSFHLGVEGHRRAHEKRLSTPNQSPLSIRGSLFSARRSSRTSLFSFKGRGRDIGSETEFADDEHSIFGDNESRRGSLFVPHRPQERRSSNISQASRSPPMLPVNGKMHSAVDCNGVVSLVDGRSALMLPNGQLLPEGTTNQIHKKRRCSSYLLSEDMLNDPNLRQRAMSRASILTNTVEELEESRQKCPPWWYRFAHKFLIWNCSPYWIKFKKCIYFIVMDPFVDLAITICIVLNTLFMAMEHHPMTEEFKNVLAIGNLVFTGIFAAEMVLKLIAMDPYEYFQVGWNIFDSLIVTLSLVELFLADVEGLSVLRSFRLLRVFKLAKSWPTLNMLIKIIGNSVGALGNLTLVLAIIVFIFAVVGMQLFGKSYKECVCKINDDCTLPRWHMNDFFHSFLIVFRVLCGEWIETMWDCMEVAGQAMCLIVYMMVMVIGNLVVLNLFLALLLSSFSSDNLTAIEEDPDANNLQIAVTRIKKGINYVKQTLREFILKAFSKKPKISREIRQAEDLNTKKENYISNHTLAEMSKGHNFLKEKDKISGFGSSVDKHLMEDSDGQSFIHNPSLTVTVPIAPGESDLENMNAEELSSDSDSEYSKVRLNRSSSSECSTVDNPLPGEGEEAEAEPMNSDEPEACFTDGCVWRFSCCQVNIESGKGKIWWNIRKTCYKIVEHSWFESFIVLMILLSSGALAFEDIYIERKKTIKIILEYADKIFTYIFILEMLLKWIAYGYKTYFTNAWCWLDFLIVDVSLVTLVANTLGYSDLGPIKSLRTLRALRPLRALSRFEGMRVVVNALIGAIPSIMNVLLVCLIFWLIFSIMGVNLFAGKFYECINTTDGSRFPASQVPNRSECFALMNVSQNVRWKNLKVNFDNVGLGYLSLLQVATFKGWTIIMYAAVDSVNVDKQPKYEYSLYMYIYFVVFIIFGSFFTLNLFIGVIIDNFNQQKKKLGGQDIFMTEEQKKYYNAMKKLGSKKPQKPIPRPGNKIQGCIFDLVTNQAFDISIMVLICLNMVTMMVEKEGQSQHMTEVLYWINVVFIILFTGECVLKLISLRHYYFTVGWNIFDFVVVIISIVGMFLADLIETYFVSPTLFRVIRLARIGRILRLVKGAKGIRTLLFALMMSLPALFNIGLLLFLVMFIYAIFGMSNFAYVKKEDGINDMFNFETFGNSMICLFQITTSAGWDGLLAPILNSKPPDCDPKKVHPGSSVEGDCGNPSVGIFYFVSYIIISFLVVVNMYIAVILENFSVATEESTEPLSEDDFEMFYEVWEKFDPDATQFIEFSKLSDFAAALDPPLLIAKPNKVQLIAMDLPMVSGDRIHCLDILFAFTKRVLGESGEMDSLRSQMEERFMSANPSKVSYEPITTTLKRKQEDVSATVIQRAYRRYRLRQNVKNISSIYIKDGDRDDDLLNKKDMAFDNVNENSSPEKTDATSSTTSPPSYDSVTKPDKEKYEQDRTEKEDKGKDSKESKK

One test addresses T1, human Nav1.7 (Homo sapiens (Human), UniProt Q15858). Nature of the test: FLIPR membrane potential dye assay (alternative fluorescence assay). Format: cell-based.
Conditions: not given
For `O=C1NC(=O)C2(CCN(c3cc(-c4cccc(OC(F)(F)F)c4)ccn3)CC2)N1` [Compound 21, 8-(4-(3-(Trifluoromethoxy)phenyl)pyridin-2-yl)-1,3,8-triazaspiro[4.5]decane-2,4-dione], the IC50 – broadly, the concentration that inhibits the measured activity by half – stood at 1980 ± 309 nM.

Take `O=C1NC(=O)C2(CCN(c3ccc(Oc4cccc(C(F)(F)F)c4)cn3)CC2)N1` [Compound 18, 8-(5-(3-(trifluoromethyl)phenoxy)-pyridin-2-yl)-1,3,8-triazaspiro[4.5]decane-2,4-dione]: the IC50 stood at 1440 ± 492 nM.

As for `O=C1NC(=O)C2(CCN(c3ccc(Oc4ccc(C(F)(F)F)cc4)cc3)CC2)N1` [Compound 19, 8-(4-(4-(trifluoromethyl)phenoxy)phenyl)-1,3,8-triazaspiro[4.5]decane-2,4-dione], the 50% inhibitory concentration (IC50) was over 20000 nM.

`O=C1NC(=O)C2(CCN(c3cc(-c4ccc(OC(F)(F)F)cc4)ccn3)CC2)N1` [Compound 15, 8-(4-(4-(trifluoromethoxy)phenyl)pyridin-2-yl)-1,3,8-triazaspiro[4.5]decane-2,4-dione]: the half-inhibitory concentration (IC50) was found to be 872 ± 117 nM.

`O=C1NC(=O)C2(CCN(c3ccc(Oc4ccc(C(F)(F)F)cc4)cn3)CC2)N1` [Compound 17, 8-(5-(4-(trifluoromethyl)phenoxy)pyridin-2-yl)-1,3,8-triazaspiro[4.5]decane-2,4-dione] displayed an IC50 of 1730 ± 649 nM.

`O=C1NC(=O)C2(CCN(c3ccc(Oc4cccc(F)c4)cc3)CC2)N1` [Compound 13, 8-(4-(3-Fluorophenoxy)phenyl)-1,3,8-triazaspiro[4.5]decane-2,4-dione] displayed an IC50 of 1540 ± 223 nM.

`O=C1NC(=O)C2(CCN(c3ccc(Oc4ccc(F)cc4)cc3)CC2)N1` [Compound 12, 8-(4-(4-Fluorophenoxy)phenyl)-1,3,8-triazaspiro[4.5]decane-2,4-dione] returned a half-maximal inhibitory concentration (IC50) of over 20000 nM.

As for `O=C1NC(=O)C2(CCN(c3ncccc3Oc3ccc(F)cc3)CC2)N1` [Compound 20, 8-(3-(4-Fluorophenoxy)pyridin-2-yl)-1,3,8-triazaspiro[4.5]decane-2,4-dione], the half-inhibitory concentration (IC50) was over 20000 nM.

For `O=C1NC(=O)C2(CCN(c3ccc(Oc4ccc(F)cc4)cn3)CC2)N1` [Compound 16, 8-(5-(4-Fluorophenoxy)pyridin-2-yl)-1,3,8-triazaspiro[4.5]decane-2,4-dione], the half-maximal inhibitory concentration (IC50) came to 4480 ± 1040 nM.

`O=C1NC(=O)C2(CCN(c3ccc(Oc4cccc(C(F)(F)F)c4)cc3)CC2)N1` [Compound 14, 8-(4-(3-(Trifluoromethyl)phenoxy)phenyl)-1,3,8-triazaspiro[4.5]decane-2,4-dione] showed an IC50 of 1270 ± 380 nM.

The next test has as its target T1, human Nav1.7. Kind of test: FLIPR sodium dye assay (CoroNa Green AM Na+ dye, primary fluorescence assay). Conditions: recombinant human Nav1.7 in HEK293. In kind it is cell-based.
With `NC(=O)c1cc(N[C@H]2CCNC2=O)nc(N2CCC3(CC2)C(=O)NCN3c2ccccc2)n1` [Compound 11, (S)-2-(4-oxo-1-phenyl-1,3,8-triazaspiro[4.5]decan-8-yl)-6-((2-oxopyrrolidin-3-yl)amino)pyrimidine-4-carboxamide], the IC50 was over 20 µM.

Regarding `NC(=O)c1cc(N[C@H]2CCNC2=O)nc(N2CCC3(C=Cc4ccccc43)CC2)n1` [Compound 9, (S)-6-((2-oxopyrrolidin-3-yl)amino)-2-(spiro[indene-1,4′-piperidin]-1′-yl)pyrimidine-4-carboxamide], the IC50 came to 1.3 ± 0.124 µM.

For the compound `NC(=O)c1cc(N[C@H]2CCNC2=O)nc(N2CCC3(CC2)OC(=O)c2ccccc23)n1` [Compound 10, (S)-2-(3-oxo-3H-spiro [isobenzofuran-1,4′-piperidin]-1′-yl)-6-((2-oxopyrrolidin-3-yl)amino)pyrimidine-4-carboxamide], the IC50 amounted to 3.86 ± 0.39 µM.

For `NC(=O)c1cc(N[C@H]2CCNC2=O)nc(N2CCC3(CC2)OCc2ccccc23)n1` [Compound 8, (S)-6-((2-oxopyrrolidin-3-yl)amino)-2-(3H-spiro[isobenzofuran-1,4′-piperidin]-1′-yl)pyrimidine-4-carboxamide], the IC50 is 3.92 ± 0.466 µM.
